Experiments:
[1] = system: mixture of HIV RNA transcripts and genomic calf DNA; assay: Selective extraction of HIV RNA transcripts from a mixture with genomic DNA (functionalization/capture/cleavage/elution, Qubit quantification); conditions: tag at 1.5 mM; for Final DNA/RNA ratio: after elution step 4
Procedure: For this, two biological models of nucleic acids were selected, HIV transcripts for RNA and genomic calf DNA. In order to compare the efficacy of the aza-isatoic derivative 14, these tests were also carried out on the reference compound Biot-peg4-SS-IAMe at 65° C. and at room temperature.
The nucleic acids used in this example are as follows: • HIV transcripts WT 1500 bases, at 1.94 μg/μL. • gDNA calf thymus, SIGMA (Saint Louis, USA), ref. D4764-5UN, at 1.92 μg/μL.
The following reagents are put in three 0.2-ml plastic tubes (Table 2 below):
In each case, the final concentrations of TEAAc and of functionalizing reagent are 250 mM and 1.5 mM respectively.
The three tubes are incubated for 1 hour at room temperature or at 65° C. on a heated rack.
Purification of the nucleic acids for each test was carried out in 5 different tubes of equivalent volume, in order to meet the optimum conditions for this step (i.e. 1 mg of magnetic silica per 2 μg of nucleic acids). Thus, each test is distributed in five 1.5-mL Eppendorf tubes i.e. 5 times 2.1 μL (2 μg of AN). 900 μL of lysis buffer (Easy Mag buffer, ref. 280134, bioMerieux, Marcy l'Etoile, France) and 50 μL of magnetic silica particles (EasyMAG silica, ref. 280133, bioMerieux, Marcy l'Etoile, France) are added to each tube. The latter are immediately stirred by the vortex effect after adding the silica, and then incubated for 10 minutes at room temperature. After magnetization on a DYNAL magnet, the supernatants are removed by aspiration with a pipette. For the next washing steps, the tubes are always stirred by the vortex effect and magnetized, followed by removal of the supernatant. A first washing is carried out with 500 μL of washing buffer 1 (Easy Mag buffer, ref. 280130, bioMerieux, Marcy l'Etoile, France). Two washings are then carried out with 900 μL and then 500 μL of washing buffer 2 (Easy Mag buffer, ref. 280131, bioMerieux, Marcy l'Etoile, France). Finally, a last washing step is carried out with 500 μL of elution buffer 3 (Easy Mag buffer, ref. 280132, bioMerieux, Marcy l'Etoile, France) at room temperature. […] The latter are analysed with the Qubit® Fluorometer instrument, ref. Q32857, Invitrogen (Carlsbad, Calif., United States of America), and using the kits Quant-iT RNA Assay Kit 5-100 ng (ref. Q32855, Invitrogen, Carlsbad, Calif., United States of America), and Quant-iT dsDNA HS Assay Kit 0.2-100 ng (ref. Q32854, Invitrogen, Carlsbad, Calif., United States of America). These analysis kits allow an RNA/DNA ratio to be determined in a mixture.
To perform this capture on magnetic particles, it is necessary to store each of the tests divided into 5 tubes in the preceding purification step. […] This supernatant is analysed as before with the Qubit® Fluorometer. […]

[2] = system: ODN with 27 bases; assay: Functionalization of a 27-mer ODN (chemo-selectivity RNA versus DNA); conditions: room temperature, 1 hour, reagent 30 mM, DMSO/TEAAc 250 mM pH 7 25/75
Procedure: 8 nmol of ODN with 27 bases, Seq: 5′-AAC-CGC-AGT-GAC-ACC-CTC-ATC-ATT-ACA-3′ (Eurogentec, Liege Science Park, Belgium) or 8 nmol of an ORN with 27 bases, Seq: 5′-AAC-CGC-AGU-GAC-ACC-CUC-AUC-AUU-ACA-3′ (Eurogentec, Liege Science Park, Belgium) is reacted with the aza-isatoic anhydride derivative (14) at 30 mM in a mixture DMSO/buffer TEAAc (250 mM pH 7) 25/75, for 1 hour at room temperature. After precipitation with acetone and hydrolysis with nuclease P1 and alkaline phosphatase, the hydrolysed fragments are analysed by LC-MS, as described in example 3. An example of chromatograms for monitoring the reaction of the ODN or of the ORN with compound 14 is shown in FIG. 6, where traces A, B and C correspond respectively to the initial ORN, the ORN functionalized with compound 14 and precipitated, and the ORN functionalized with 14, precipitated and hydrolysed. Traces D, E and F represent the same results obtained with the ODN.

[3] = system: ORN with 27 bases; assay: Functionalization of a 27-mer ORN, degree of functionalization (Df) by HPLC after nuclease P1/alkaline phosphatase hydrolysis
Procedure: A comparison of the reactivity of the aza-isatoic anhydride derivative 14 relative to the reference isatoic derivative, Biot-peg4-SS-IAMe as described in WO-A-2012/076794, with respect to a 27-base model ORN (seq: 5′-AAC-CGC-AGU-GAC-ACC-CUC-AUC-AUU-ACA-3′, Eurogentec, Liege Science Park, Belgium) is carried out. For this, a fixed amount of ORN is reacted with an isatoic anhydride derivative conjugated with a molecule of interest, at 65° C. and at room temperature. The reaction is monitored by HPLC at 260 nm as was described previously in patent application WO-A-2012/076794 in example 3. This analysis makes it possible to detect the disappearance of the peak corresponding to the initial ORN and the appearance of peaks corresponding to the acylated ORN. These products have a greater retention time, and an absorption spectrum corresponding both to that of the ORN, and to that of the functionalizing reagent.
For precise evaluation of the degree of functionalization (Df), the ORN population (labelled and unlabelled) is separated from the surplus marker by precipitation with acetone/lithium perchlorate. Then the ORNs thus obtained are submitted to hydrolysis with nuclease P1 (Aldrich, Saint Louis, USA) and with alkaline phosphatase (Aldrich, Saint Louis, USA) in order to hydrolyse the phosphate diester bonds of the ORN.
LC-MS analysis of this mixture then allows several populations to be characterized and identified: • unlabelled ribonucleosides; • labelled mono-nucleoside adducts, which differ very clearly by a longer retention time, and by a UV spectrum characteristic of the nucleic acids and of the functionalizing reagent; • dinucleotides acylated at 2′ which, because of the anthranilate group substituted with the group of interest at 2′, cannot be cleaved by the nuclease P1; • per-acylated 2′OH trinucleotides or tetranucleotides, which may form theoretically but which are statistically very little represented (as this would then require two or three consecutive acylations of 2′OH), are not investigated.
The degree of functionalization of the ORN (Df) is evaluated by measuring: • the area corresponding to the terminal mononucleoside adducts (functionalized at 2′ and at 3′) and the area corresponding to the acylated dinucleotides (functionalized internally on the 2′OH) • compared to the area of the peaks corresponding to the four ribonucleosides.
In a standard experiment, the equivalent of 8 nmol of an ORN with 27 bases (5′-AAC-CGC-AGU-GAC-ACC-CUC-AUC-AUU-ACA-3′, Eurogentec, Liege Science Park, Belgium) in solution in water is first dried in a centrifugal evaporator (RCT 60, Jouan, St Herblain, France) in a 2-mL plastic Eppendorf tube. The dry residue obtained is first dissolved in 40 μL of water, then 20 μl of a buffered solution is added (in the example, a 1M triethylammonium acetate buffer solution, pH 7, Aldrich, St Louis, USA ref: 09748-100 ml). Finally, 20 μl of a solution of an isatoic anhydride derivative at 120 mM in DMSO is incorporated in the preceding solution (either the reference molecule Biot-peg4-SS-IAMe as described in FR 1060102 or the aza-isatoic derivative Biot-peg4-SS-azaIAMe (14) in this example). The mixture is incubated for 60 minutes at room temperature or at 65° C. in a stove on a rack pre-equilibrated in temperature. To remove the salts and the surplus marker, the mixture is then purified by triple precipitation in 1.2 mL of an acetone/LiClO4 180 mM 75/25 mixture. […]

[4] = 65° C., 60 minutes, TEAAc pH 7, reagent 120 mM in DMSO diluted in the mixture
[5] = room temperature, 1 hour, TEAAc pH 7, reagent 30 mM

Structure (SMILES)	S* (intermediate selectivity index) ([1]; functionalization at Rt)	Final DNA/RNA ratio ([1]; functionalization at Rt)	uncorrected degree of functionalization of the ODN [2]	factor of increase of reactivity with respect to an oligoribonucleotide relative to the reference compound ([3]; 65° C.)	uncorrected degree of functionalization (Df) of the ORN [3, 4]	uncorrected degree of functionalization (Df) of the ORN [3, 5]	melting point	S* (intermediate selectivity index) ([1]; functionalization at 65° C.)	Final DNA/RNA ratio ([1]; functionalization at 65° C.)
Cn1c(=O)oc(=O)c2cc(CCC(=O)NCCSSCCNC(=O)CCOCCOCCOCCOCCNC(=O)CCCCC3SCC4NC(=O)NC43)cnc21 [Compound 14, 1-{5-[(3aS,6aR)-2-oxo-hexahydro-1H-thieno[3,4-d]imidazolidin-4-yl]pentanamido}-N-(2-{[2-(3-{1-methyl-2,4-dioxo-1H,2H,4H-pyrido[2,3-d][1,3]oxazin-6-yl}propanamido)ethyl]disulphanyl}ethyl)-3,6,9,12-tetraoxapentadecan-15-amide]	30	4/96	0.5%	1.8	13.5%	7.8%	–	–	–
Cn1c(=O)oc(=O)c2cc(CCC(=O)NCCSSCCNC(=O)CCCCC3SCC4NC(=O)NC43)cnc21 (centres unmarked) [Compound 12, 5-[(3AS,6AR)-2-OXO-HEXAHYDRO-1H-THIENO[3,4-D]IMIDAZOLIDIN-4-YL]-N-(2-{[2-(3-{1-METHYL-2,4-DIOXO-1H,2H,4H-PYRIDO[2,3-D][1,3]OXAZIN-6-YL}PROPANAMIDO)ETHYL]DISULPHANYL}ETHYL)PENTANAMIDE]	–	–	–	–	–	–	125 °C	–	–
O=C(CCCCC1SCC2NC(=O)NC21)NCCOCCOCCOCCC(=O)NCCSSCCC(=O)Nc1cccc2[nH]c(=O)oc(=O)c12 (centres unmarked) [Biot-peg4-SS-IAMe, reference compound]	–	–	–	–	7.5%	1%	–	6	14/86

Source: patent publication US10174068B2, “Methods of functionalization and reagents used in such methods using an aza-isatoic anhydride or a derivative thereof, biological molecules thus treated and kits” (BIOMERIEUX, priority 2012, dated 2019)
